Patent US20230277449A1, “ORAL CAVITY POLYMERIC DELIVERY SYSTEMS” (YISSUM RESEARCH DEVELOPMENT COMPANY OF THE HEBREW …, priority 2020, published 2023)
In brackets after ≈: the same amount, converted by molar mass. Like-named read-outs stand apart in the source and are kept apart here.

What was measured:
[1] = Simulation of the results in pig to human setup; details: same ABPD conditions, CL difference, Eq. 2
Procedure: Plasma levels at steady state (Css) of the test substance following in-vivo buccal administration are calculated by Eq. 2:
where CL is the PK parameter of total clearance of the tested substance in-vivo.

[2] = Simulation of rat plasma levels after buccal administration; details: rat 330 gr, Co = 19 mg/ml, A = 0.2 cm^2, Papp = 0.51*10^-6 cm/sec
From the text: Papp through porcine buccal mucosa was selected (as lower Papp is of no clinical relevance).

[3] = Monitored vital parameters after IV APO in pigs; assay type: in vivo, pig; details: 1 mg/kg IV APO, mean (lowest - highest)
From the text: Pigs were fasted overnight before the experiments. […] Pigs were positioned on their back.

[4] = Simulation to human plasma levels from ex-vivo Papp
Procedure: The flux (Jss) of the test substance via the buccal mucosa is calculated by Eq. 6:
Simulation of blood levels at steady state (Css) of the substances if administered in-vivo is calculated by Eq. 7:
where CL is the pharmacokinetic parameter of total clearance of the tested substance in-vivo.
Application area (A) was 50 cm^2 which corresponds to buccal area in humans.

[5] = IV administration of APO to pigs, pharmacokinetics; details: female, pig, plasma, 1 mg/kg
Procedure: 2.1.7 In-vivo protocol of IV administration: Domestic female pigs (sus scrofa domesticus) of 35-40 kg were allowed to acclimate before the experiment. Pigs were fasted overnight before the experiments. On the morning of the experiment pigs were anesthetized by xylazine 1 mg/kg, midazolam 0.04 mg/kg, ketamine 5 mg/kg and propofol 4 mg/kg. Pigs were positioned on their back. Endotracheal tube was inserted, and pigs were respired with oxygen. […] Catheter was inserted into ear vein through which physiological saline was administered. Pigs received amoxicillin 15 mg/kg antibiotic and tolfenamic acid 2 mg/kg analgesic. An intra-jugular catheter was inserted for blood sampling. Pigs were constantly monitored for their respiration rate, rectal temperature, O2 saturation, heart rate and blood pressure. Cardiovascular parameters were obtained by blood pressure monitor with porcine adapted front leg cuff. […] Plasma was collected into tubes containing 10 µl mercaptoethanol and stored at -80° C. pending analysis. Isoflurane anesthesia was terminated, and pigs were recovered under veterinary surveillance to consciousness.
The samples were reconstituted in 100 µl 1:4 MeOH:DDW solution containing 0.01%^v/v formic acid and 0.1%^v/v mercaptoethanol and injected into LC-MS-MS system.
2.1.12 Chromatographic analysis of in-vivo samples: The chromatography was performed using a Shimadzu UHPLC System. The chromatographic separations were performed on a Kinetex™ (Phenomenex, CA, USA) column (EVO C18, 2.6 µm, 100 Å, 100 × 2.1 mm), protected by a SecurityGuard™ (Phenomenex, CA, USA) ULTRA cartridge (C18, 4 × 2 mm). The injection volume was 5 µl, temperature was 40° C.

[6] = Physicochemical properties stated in the text (log P, pKa, solubility); details: gelatin hydrogel, aqueous with cosolvent or surfactant or cyclodextrin, read-out: solubility in buffered hydrogel
[7] = Intravenous administration of APO to rats; assay type: in vivo; details: male, Wistar, rat, plasma, 2.0 mg/kg IV
Procedure: Prior to surgery rats were fasted overnight with free access to water. Animals were anesthetized for the period of surgery by intra-peritoneal injection of 1 ml/kg of ketamine-xylazine solution (9:1, respectively). An indwelling cannula was placed in the right jugular vein of each animal for systemic blood sampling. After the surgery, rats were returned to cages overnight with free access to food and water.
Following this analysis, PK parameters were obtained.

[8] = Ex-vivo permeability of APO, MTP and ATN in Ussing diffusion chamber; assay type: in vitro ADME, pig; details: pH 7.4 with addition of 10% v/v NLF
[9] = in vivo; details: pig
From the text: 2.1.1 HPMC-based core ABPD preparation: All polymers were sieved through a 50-mesh sieve prior to their use.
The dispersion was slowly cooled with constant vigorous stirring to room temperature to obtain a solid. This solid was introduced into 8 mm flat-faced punch and die set. […] The diameter of the core was changed to 10.5 mm due to compression.
DDW and vigorously stirred until full dissolution to homogenous solution. The pH of the solution was adjusted to 5.9 by H3PO4 and KOH. The solution was cooled at room temperature for 10 min with continuous stirring.
2.1.8 In-vivo protocol of buccal administration: Following full recovery of 1 week, these (and additional) pigs underwent experiments with administration of buccal devices. The preparation of pigs for the experiments were done as previously described. Pigs were positioned on their left side. Inner side of the left cheek was gently cleaned with a gauze. […] The liquefied core was carefully collected and stored at -80° C. […] Cheeks were excised. […] The other half was fixated in 4% formaldehyde and stored for at least a month. Afterwards, these samples were trimmed, embedded in paraffin and sectioned. They were stained with Hematoxilyn and Eosin and underwent a histopathological examination. As a first step, each of the first 3 pigs received a different ABPD (as previously described): hydroxypropyl methylcellulose (HPMC) - based core, witepsol H15 - based core, or hydrogel - based core. After results evaluation, 3 additional pigs received hydrogel -based core ABPDs. Lastly, 1 pig received a hydrogel-based core ABPD with modified parameters.
The tubes were vigorously shaken for approximately 20 h. […] The supernatant was transferred to a clean tube, to which 0.3 ml of 1M NaOH and 0.7 ml 0.2 M Na2HPO4 were added. The tubes were vortex-mixed for 2 min. The pH was adjusted to 7 - 9 by NaOH and HCl. […] The supernatant was transferred to a clean tube and evaporated to dryness under vacuum. 3 ml of 0.1 M HCl were added to the tissue once again and vigorously shaken for 20 min. Afterwards, the tissue underwent the same procedure one more time with supernatant collected to respective tubes as previously. […] Samples were 2000-fold diluted in the reconstitution diluent and injected into LC-MS-MS system.
Following this analysis PK parameters were obtained.

[10] = cited from earlier work
[11] = In-vivo permeability study on rats (buccal administration)

## CN1CCc2cccc3c2[C@H]1Cc1ccc(O)c(O)c1-3 [APO, apomorphine]
[1]
  Css simulated for 70 kg human: 4 to 6 ng/mL
[2]
  calculated Css: 2.3 ng/mL
[3]
  Diastolic blood press (mmHg): 43.1 (32 - 55) mmHg
  Heart rate (beats/min): 95.2 (74 - 120) beats/min
  O2 saturation (%): 97.7 (95 - 100) %
  Respiration rate kept at (min^-1): 12.2 (11- 13) min^-1
  Systolic blood press (mmHg): 81.7 (72 - 101) mmHg
[3]; four pigs
  Rectal temp (°C): 38.2 (37.4 - 39.4) °C
[4]; 1:1 ethanol: propylene glycol, 20 mg/ml
  Jss calculated (mg/(cm^2*h)): 0.84 mg/(cm^2*h)
[4]; pH 5.9, 20 mg/ml
  Jss calculated (mg/(cm^2*h)): 0.04 mg/(cm^2*h)
[4]; pH 7.4, 20 mg/ml
  Jss calculated (mg/(cm^2*h)): 0.22 mg/(cm^2*h)
[5]
  AUC(0-inf): 107 ng·h/mL
  Vd: 6.6 L/kg
  clearance: 218 mL/min/kg
[6]
  solubility: 40 mg/mL (≈ 150 mM)
[7]
  clearance: 153 mL/min/kg
[7]; read-out: volume of distribution
  Vd: 3.3 L/kg
[8]
  lag-time: 3 h
[9]
  Cmax after removal smaller than with the four pigs: 2 fold
  Cmax of the peak higher than Css: 4 fold
  time of Cmax: 8.7 h
  time of the peak after ABPD removal: about 45 min
[9]; 1.37 mg/kg
  Css experimentally obtained: 2.15 (±0.44) ng/ml
  theoretical Css predicted: 2.24 ng/mL
[9]; 2 mg/kg
  AUC: 32.8 ng·h/mL
  AUC(0-inf): 50.7 ng·h/mL
  Cmax: 9.7 ng/mL
[10]; human, literature
  CL: 50 to 83 mL/min/kg
  Vd: 1 to 2 L/kg
[10]; humans
  excreted unchanged to urine: up to 4%
[11]; buccal solution, three anesthetized rats, 8 h
  APO in the plasma: not detected
[11]; rats
  APO concentration in the solution inside the delivery device at 8 h vs initial: did not change
